Test results reported in patent publication US8530471B2, “Therapeutic cyclopentane derivatives” (Allergan, Inc., priority 2008, dated 2013).

How the values were obtained:
normotensive dogs = experiment: Intraocular pressure (IOP) reduction in normotensive dogs; type: in vivo
Description: Compounds such as those described in the above are tested in vivo to measure its ability to reduce intraocular pressure. Compound A is tested in normotensive dogs.
Compound B is tested in normotensive dogs.

[1] = test system: laser-induced hypertensive monkeys; experiment: Intraocular pressure (IOP) reduction in laser-induced hypertensive monkeys; type: in vivo
[2] = test system: lashes and adjacent hairs of patients; experiment: Observation of lashes in glaucoma patients treated in only one eye; type: in vivo, human; conditions: glaucoma patient, unilateral treatment
Source text: In the course of treating patients having glaucoma, treatment may only be appropriate in one eye. […] The lash appearance on the lids of the treated eyes would have appeared quite attractive if it represented a bilateral phenomenon. As a result of its asymmetric nature, the long lashes on one side could be construed as disturbing from a cosmetic standpoint. A systemic examination was preformed as a result of the asymmetric phenomenon. It soon became apparent that this altered appearance was not an isolated finding. […] Definite differences could be identified to varying degrees in the lashes and adjacent hairs of all patients who were taking the drug on a unilateral basis for longer than 6 months.
The changes in the lashes were apparent on gross inspection in several patients once attention was focused on the issue. In those with light colored hair and lashes, the differences were only seen easily with the aid of the high magnification and lighting capabilities of the slit lamp biomicroscope. In the course of glaucoma follow-up examination, attention is generally immediately focused on the eye itself. As a result of the high power magnification needed only one eye is seen at a time and the eye is seen at a high enough power that the lashes are not in focus. […]

Row | SMILES | intraocular pressure (IOP) change from baseline (normotensive dogs) | intraocular pressure (IOP) change from baseline [1] | lash appearance in treated eye versus non-treated eye [2]
1 | CCCCCC(O)c1ccc([C@@H]2[C@@H](C/C=C\CCCC(=O)OCCO)[C@H](C#N)C[C@H]2O)cc1 (some centres unmarked) [Compound A] | decreases from baseline | decreases from baseline | –
2 | CCCCCC(O)c1ccc([C@@H]2[C@@H](C/C=C\CCCC(=O)OCCN3CCOCC3)[C@H](C#N)C[C@H]2O)cc1 (some centres unmarked) [Compound B] | decreases from baseline | decreases from baseline | –
3 | CCNC(=O)CCC/C=C\C[C@@H]1[C@@H](/C=C/[C@@H](O)CCc2ccccc2)[C@H](O)C[C@@H]1O [bimatoprost] | – | – | longer, thicker, and fuller in the treated eye than in the non-treated eye
